Series [1] has as its system Lewis Lung Carcinoma (LLC). The experiment in a line: Established Lewis Lung Carcinoma tumor model. In kind it is in vivo, C57BL/6 mice. As to conditions: for antitumor activity / efficacy: VPA systemically administered (100 mg/kg intraperitoneally every third day) to animals receiving ValloVax™, 100 mg/kg; for antitumor activity / efficacy / tumor killing activity / therapeutic efficacy: FIG. 5; for tumor killing activity / therapeutic efficacy: ValloVax™ pretreated in vitro with VPA, compared to standard ValloVax™, LLC bearing mice. The text has this: Female C57BL/6 aged 8-12 weeks were purchased from The Jackson Laboratory. Animals were housed under conventional conditions at the Animal Care Facility, Institute for Cellular Immunology, and were cared for in accordance with the guidelines established by the Canadian Council on Animal Care. Lewis Lung Carcinoma (LLC), a murine lung carcinoma originating from C57/BL6 mice was obtained from American Type Culture Collection (ATCC). The cells were maintained in RPMI1640 supplemented with 10% fetal bovine serum, 2 mM glutamine (Gibco-BRL, Life Technologies, Inc.) and were passaged by trypsinization once cells reached 75% confluence. The cell line was cultured at 37°0 C. in a 5% CO2 incubator under fully humidified conditions.
For induction of tumor growth, 5×10^5 LLC cells, American Type Culture Collection (Manassas, Va.) cells were injected subcutaneously into the hind limb flank. Four weekly vaccinations of 5×10^5 test cells were administered subcutaneously on the contralateral side to which tumors were administered. Tumors were allowed to grow for 2 weeks, subsequently to which one injection of ValloVax™ or VPA-pretreated ValloVax™ was given. Valproic acid was administered every third day at a concentration of 100 mg/kg intraperitoneally. Tumor growth was assessed every 3 days by two measurements of perpendicular diameters by a caliper, and animals were sacrificed when tumors reached a size of 1 cm in any direction. Tumor volume was calculated by the following formula: (the shortest diameter^2×the longest diameter)/2.

Series [2] has as its system ValloVax™ cells. Description: Viability of ValloVax™ stimulator cells in MLR (CellTiter). In kind it is cell-based, human. Particulars: ValloVax™ cells treated with VPA, cultured with allogeneic responding cells, FIG. 2. How it is done:
Cells were incubated with or without 1 mM VPA for 48 hours.
Depletion of T cells, B cells and NK cells was performed with Magnetic Activated Cell (MACS) isolation kits from Milteny Biotec following the manufacturer's instructions.
Viability was assessed by CellTiter Viability kit from Promega following the manufacturer's instructions.
(§1) Mixed lymphocyte reactions (MLR) were set up with 5×10^5 responder PBMC and 5×10^3 (1:100), 5×10^4 (1:10), […] γ-irradiated (10 Gy) ValloVax™ cells in round-bottomed 96-well plates (Nunc, Roskilde, Denmark). MLR were cultured in MEM-α supplemented with 2 mM L-glutamine, 1% P/S and 10% heat-inactivated human serum for 4 days in a humidified atmosphere with 5% CO2 at 37° C.

Series [3] has as its system ValloVax™ cells cultured with NK-92 cells. Description: Killing of VPA treated ValloVax™ cells by NK-92 cell line. In kind it is cell-based, human. As to conditions: FIG. 4. How it is done: Cells were incubated with or without 1 mM VPA for 48 hours. NK-92 cells were added to the target cells as effector cells, and the cells were co-cultured for 4 h 37° C. To block NKG2D on NK-92 cells, 10 μg/ml anti-NKG2D mAb or mouse IgG1 isotype control antibody were added to the NK cells 30 min before co-culture. Viability was assessed by CellTiter Viability kit from Promega following the manufacturer's instructions.

For series [4], the system named is mixed lymphocyte reaction (PBMC with ValloVax™ cells). Description: Cytokine ELISA of mixed lymphocyte reaction supernatants. Particulars: ValloVax™ treated with VPA. In kind it is cell-based, human. How it is done: (§2) Peripheral blood mononuclear cells (PBMC) were isolated from buffy coats of healthy blood donors (Sanquin, Rotterdam, the Netherlands) by density gradient centrifugation using Ficoll-Paque PLUS (density 1.077 g/ml; GE Healthcare, Uppsala, Sweden). Cells were frozen at −150° C. until further use in RPMI-1640 medium with GlutaMAX™-I (Life Technologies) supplemented with 1% P/S, 10% human serum (Sanquin) and 10% dimethylsulphoxide (DMSO; Merck, Hohenbrunn, Germany).
as §1
For cytokine analysis supernatant was collected on day two of culture and analyzed by ELISA (R & D Systems) as per manufacturer's instructions.
On the technique in general: An ELISA detects its analyte on a solid surface through an enzyme-linked reagent.

The test system of series [5] is ValloVax™ cells. The experiment in a line: Ex vivo cytotoxicity of NK cells from in vivo valproic acid treated mice to ValloVax™ cells. In kind it is cell-based. As to conditions: NK cells isolated from in vivo valproic acid treated mice.
Series [6] has as its system LLC cells. The experiment in a line: Ex vivo cytotoxicity of NK cells from in vivo valproic acid treated mice to LLC cells. In kind it is cell-based. Particulars: NK cells isolated from in vivo valproic acid treated mice.
Series [7] deals with allogeneic responding lymphocytes (responder PBMC). Description: Mixed lymphocyte reaction, proliferation by [3H]-thymidine incorporation. Type of series: cell-based, human. As to conditions: placental endothelial stimulator cells pretreated with the agent; FIG. 1a. How it is done:
as §2, §1
Cell proliferation was assessed by thymidine incorporation, [^3H]-thymidine (0.25 μCi/well; PerkinElmer, Groningen, the Netherlands) was added on day 4, incubated for 8 h and its incorporation was measured using the Wallac 1450 MicroBeta Trilux (PerkinElmer).
It was previously reported that ValloVax™, a placental endothelial derived cellular vaccine stimulates immunity to proliferating endothelium, resulting in tumor regression. […]
(Uptake of a labelled nucleoside into DNA is a usual measure of proliferation.)

Series [8] deals with non-small cell lung cancer (NSCLC). Particulars: patients diagnosed with metastatic disease; cited from earlier work.

For the molecule `CCCC(CCC)C(=O)O` [VPA, Valproic acid], the entries for the “antitumor activity / efficacy” value in series [1], in series [1] (listed as valpoic acid) and in series [1] (listed as valproic acid) were “synergistic antitumor activity”, “enhanced antitumor efficacy” and “augmented efficacy against lung cancer”, respectively. For the same molecule, the “tumor killing activity / therapeutic efficacy” value in series [1] is “did not significantly augment”; in series [1] (listed as valproic acid), “did not augment in vivo efficacy”. Further, in series [1] (in vivo administration of VPA and ValloVax, established lung cancer model), the Survival entry is on record as “Significantly Enhances Survival”. The “viability of the ValloVax™ cells in MLR” value is recorded as “dose-dependent loss of viability” in series [2] and “killing of ValloVax™ in vitro by an NK cell dependent mechanism” in series [2] (listed as valproic acid). Also, the “toxicity to VPA treated ValloVax™ cells” value in series [3] is on record as “toxicity was observed”. Also, the “IL-10 in MLR” value in series [4] (FIG. 1d) is listed as “no significant upregulation”. In series [4] (supernatants from MLR at 48 hours, FIG. 1b), the “production of IFN-gamma in MLR” value is reported as “substantially increased”. For the same molecule, the “production of IL-18 in MLR” value in series [4] (supernatants from MLR at 48 hours, FIG. 1c) was “substantially increased”. In series [5], the “cytotoxicity of NK cells to ValloVax™ cells ex vivo” value was “enhanced cytotoxicity”. Moreover, the “cytotoxicity of NK cells to LLC cells” value in series [6] was “enhanced cytotoxicity”. In addition, the “Proliferation of allogeneic responding lymphocytes (allostimulatory activity)” value in series [7] is “not”.
Turning to `Nc1nc2[nH]cc(CCc3ccc(C(=O)N[C@@H](CCC(=O)O)C(=O)O)cc3)c2c(=O)[nH]1` [pemetrexed], in series [8], the “median overall survival (OS)” value is on record as 17 months.

B1: interferon gamma: cytokine used to pretreat placental endothelial cells (100 IU per ml) (protein, UniProt P01579 24-161, looked up)
Interferon gamma: QDPYVKEAENLKKYFNAGHSDVADNGTLFLGILKNWKEESDRKIMQSQIVSFYFKLFKNFKDDQSIQKSVETIKEDMNVKFFNSNKKKRDDFEKLTNYSVTDLNVQRKAIHELIQVMAELSPAAKTGKRKRSQMLFRG
Consider B1, for which, in series [7], the “Proliferation of allogeneic responding lymphocytes (allostimulatory activity)” value was “substantially enhanced”.
